The text below walks through data of article PMC8198056 (Molecules, 2021).

The subject of one data set is non-human primates. Further details: method as in PMID 30158150. Conditions: cited from earlier work.
Data set [1] concerns mice. Further details: method as in PMID 17132815, PMID 23652222. The note with it: cited from earlier work.
Data set [2] deals with mice. Nature of the data set: Formalin test (formalin-induced acute inflammatory pain). Conditions: for %Antinociceptive effect Phase I: Phase I 0-5 min; for %Antinociceptive effect Phase II: Phase II 15-60 min.
Data set [3] has as its system mice. Briefly: Open-field test (spontaneous locomotor activity). The note with it: 15.5 µmol/kg s.c. daily, day 1 to day 4.
Data set [4] has as its system mice. Briefly: CFA-induced chronic inflammatory pain, mechanical sensitivity (von Frey test). It counts as in vivo, mouse. Conditions: 15.5 µmol/kg s.c.
Data set [5] relates to mice. Briefly: CFA-induced chronic inflammatory pain, thermal sensitivity (Hargreaves test). It counts as in vivo, mouse. The note with it: 15.5 µmol/kg s.c.
Data set [6] deals with mice. Briefly: Conditioned place preference (CPP). The note with it: 15.5 µmol/kg s.c., 4-day conditioning.
Data set [7] deals with mice. Nature of the data set: Naloxone-precipitated withdrawal syndrome. The note with it: 15.5 µmol/kg s.c. daily 5 days; naloxone 1 mg/kg s.c.

With `CC(C)C1CCC(N2CCC3(CC2)C(=O)N(CCNS(N)(=O)=O)Cc2ccccc23)CC1` (stereo not shown) [AT-121], the “Antinociception and side effects” value in the data set with non-human primates was “produced antinociception with reduced respiratory depression and physical dependence”.

In the case of `O=C1Cc2ccccc2N1C1CCN(C2C3CCCC2CCC3)CC1` (stereo not shown) [SR16435, 1-(1-(bicyclo [3.3. 1]nonan-9-yl)piperidin-4-yl) indolin-2-one], in the data set with mice [1], the CPP in mice result is on record as “induced CPP in mice to the same extent as morphine”.

With `CN1CC[C@]23c4c5ccc(O)c4O[C@H]2[C@@H](O)C=C[C@H]3[C@H]1C5` [morphine, reference compound], the “%Antinociceptive effect Phase I” value with mice [2] (3.11 µmol/kg s.c.) was found to be 19.4 ± 6.7%; in the data set with mice [2] (7.77 µmol/kg s.c.) it was 32.6 ± 5.7%; with mice [2] (15.5 µmol/kg s.c.) it was 38.4 ± 10.9%. The “%Antinociceptive effect Phase II” value turned out to be 24.8 ± 11.6% in the data set with mice [2] (3.11 µmol/kg s.c.), 57.5 ± 8.3% with mice [2] (7.77 µmol/kg s.c.) and 79.1 ± 7.5% in the data set with mice [2] (15.5 µmol/kg s.c.). Moreover, the “Pain response counted between 15 and 60 min” value in the data set on mice [2] (15.5 µmol/kg s.c.) is on record as “almost complete inhibition of the pain response”. In addition, the “Spontaneous locomotor activity (distance traveled) vs saline” value in the data set with mice [3] was “significant increase in the distance traveled”. In the data set with mice [4], the “Time points of significant effect on mechanical stimulation vs saline” value is 30 min and one hour. The “% reversal of mechanical sensitivity” value in the data set on mice [4] (30 min) is recorded as 63.4%; in the data set on mice [4] (1 h), 50.6%; with mice [4] (2 h) it was 18.9%; with mice [4] (3 h), 6.62%; with mice [4] (4 h) it was 1.57%; with mice [4] (5 h) it was 11.7%. The “% reversal of mechanical sensitivity” value is on record as -2.29% with mice [4] (6 h) and 1.68% in the data set on mice [4] (24 h). Besides, the “Time of peak antihyperalgesic effect” value in the data set with mice [5] is on record as 30 min. Besides, the “Time points of significant reduction in thermal hyperalgesia vs saline” value in the data set with mice [5] was 30 min and one hour. Moreover, the “% reversal of thermal sensitivity” value with mice [5] (30 min) is listed as 68.6%; in the data set on mice [5] (1 h), 36.1%; in the data set on mice [5] (2 h), 19.6%; in the data set on mice [5] (3 h) it was 13.8%; in the data set with mice [5] (4 h), -1.96%; in the data set on mice [5] (5 h), 0.43%. Also, the “% reversal of thermal sensitivity” value is reported as -0.40% with mice [5] (6 h) and 0.00% with mice [5] (24 h). For the same molecule, the “CPP response vs saline” value in the data set with mice [6] is reported as “significant CPP response”. Moreover, the “Global withdrawal score vs saline” value with mice [7] is given as “significantly increased withdrawal”.
